The results in this text go back to paper PMC3114464 (Biochemistry, 2011).

Common to all, as to type: binding
Experiment [1] has as its target IsdA-N1 (IsdA NEAT domain) (Staphylococcus aureus, UniProt Q7A655).
Another experiment has as its target IsdB-N2 M362L (Staphylococcus aureus, UniProt Q7A656, M362L). Nature of the experiment: Trp fluorescence quenching.
Experiment [2] concerns the target IsdB-N2 (C-terminal NEAT domain of IsdB) (Staphylococcus aureus, UniProt Q7A656). Put plainly: […] Å crystal structure.

A value given as a limit tells only on which side of the number the result lay.

Regarding `C=CC1=C(C)C2=Cc3c(C=C)c(C)c4[n]3[Fe][n]3c(c(C)c(CCC(=O)O)c3=CC3=NC(=C4)C(C)=C3CCC(=O)O)=CC1=N2` [heme], the “stopped-flow Soret spectroscopy of heme transfer from holo-IsdB-N2 to apo-IsdA-N” value in experiment [1] amounted to 82 ± 6 s^–1. Also, the Kd was < 0.49 µM on IsdB-N2 M362L and < 0.38 µM in experiment [2].
